The results in this text go back to patent US8394801B2, “Quinoxaline derivatives and their use for treating benign and malignant tumour disorders” (Aeterna Zentaris GmbH, priority 2009, dated 2013).

The structures appear in SMILES notation.

One data set relates to NCI-H460. Put plainly: Proliferation assay (Alamar Blue / XTT), NCI-H460. The data set is classed as cell-based. The conditions noted are these: Homo sapiens; cell line NCI-H460 (lung). For orientation: Alamar Blue is a resazurin reagent that responds to reducing activity.
In a further data set the test system is SKOV-3. The data set is described as follows: Proliferation assay (Alamar Blue / XTT), SKOV-3. The data set is classed as cell-based. The conditions noted are these: Homo sapiens, SK-OV-3; cell line SKOV-3 (ovaries).
The test system of the next data set is HCT116. The data set is described as follows: Proliferation assay (Alamar Blue / XTT), HCT116. The data set is classed as cell-based. To be noted: Homo sapiens; cell line HCT-116 (colon).
The subject of another data set is MDA MB468. The data set is described as follows: Proliferation assay (Alamar Blue / XTT), MDA MB468. In kind it is cell-based. To be noted: Homo sapiens, MDA-MB-468; cell line MDA-MB468 (breast).
The next data set relates to PC-3. The data set is described as follows: Proliferation assay (Alamar Blue / XTT), PC-3. The data set is classed as cell-based. The conditions noted are these: Homo sapiens, cell line PC3 (prostate).
The next data set concerns A549. The data set is described as follows: Proliferation assay (Alamar Blue / XTT), A549. The data set is classed as cell-based. The conditions noted are these: Homo sapiens; cell line A549 (lung).
The next data set deals with U87MG. The data set is described as follows: Proliferation assay (Alamar Blue / XTT), U87MG. In kind it is cell-based. The conditions noted are these: Homo sapiens, U-87 MG; cell line U87MG (glioma).
A further data set deals with L363. The data set is described as follows: Proliferation assay (Alamar Blue / XTT), L363. To be noted: Homo sapiens, L-363; cell line L363 (leukaemia). The data set is classed as cell-based.
The subject of a further data set is TMM. Put plainly: Proliferation assay (Alamar Blue / XTT), TMM. In kind it is cell-based. To be noted: Homo sapiens; cell line TMM (leukaemia).
The subject of another data set is RKOP27. Put plainly: Proliferation assay (Alamar Blue / XTT), RKOP27. The conditions noted are these: Homo sapiens; cell line RKOp27 (colon). The data set is classed as cell-based.
A further data set concerns RS4, 11. The data set is described as follows: Proliferation assay (Alamar Blue / XTT), RS4, 11. The data set is classed as cell-based. To be noted: Homo sapiens; cell line RS4,11 (leukaemia).
The subject of another data set is HSB-2. The data set is described as follows: Proliferation assay (Alamar Blue / XTT), HSB-2. The data set is classed as cell-based. To be noted: Homo sapiens, HSB2; cell line HSB-2 (leukaemia).
The next data set concerns NALM-6. The data set is described as follows: Proliferation assay (Alamar Blue / XTT), NALM-6. The data set is classed as cell-based. To be noted: Homo sapiens; cell line NALM-6 (leukaemia).
For another data set, the system named is MOLT-3. Put plainly: Proliferation assay (Alamar Blue / XTT), MOLT-3. In kind it is cell-based. To be noted: Homo sapiens; cell line MOLT-3 (leukaemia).
In a further data set the test system is MOLT-16. The data set is described as follows: Proliferation assay (Alamar Blue / XTT), MOLT-16. The data set is classed as cell-based. The conditions noted are these: Homo sapiens; cell line MOLT-16 (leukaemia).
In the next data set the test system is KB-HeLa. The data set is described as follows: Proliferation assay (Alamar Blue / XTT), KB-HeLa. The data set is classed as cell-based. The conditions noted are these: Homo sapiens; cell line KB/HeLa (cervix).
For a further data set, the system named is MCF-7. The data set is described as follows: Proliferation assay (Alamar Blue / XTT), MCF-7. The data set is classed as cell-based. The conditions noted are these: Homo sapiens, MCF7; cell line MCF-7 (breast).
For another data set, the system named is MDA-MB435. Put plainly: Proliferation assay (Alamar Blue / XTT), MDA-MB435. In kind it is cell-based. To be noted: Homo sapiens, MDA-MB-435; cell line MDA-MBA435 (breast).
The subject of the next data set is LNCaP. Put plainly: Proliferation assay (Alamar Blue / XTT), LNCaP. In kind it is cell-based. The conditions noted are these: Homo sapiens; cell line LnCap (prostate).
In another data set the test system is A2780. The data set is described as follows: XTT proliferation test, A2780. The data set is classed as cell-based. The conditions noted are these: Homo sapiens, cell line A2780 (ovary), non-resistant. The source says: (§1) For further characterization, the substances according to the invention were examined in resistant tumour cell lines compared to non-resistant wild-type tumour cell lines.
(§2) The cell lines examined are the cell line A2780 (ovary), the cis-platin-resistant cell line A2780 (ovary), the cell line L1210 (leukaemia), the vincristine-resistant cell line L1210 (leukaemia), the cell line MESSA (uterus), the doxorubicin-resistant cell line MESSA Dx5 (uterus), the cell line NCIH69 (lung) and the multi-drug-resistant cell line NCIH69 AR (lung).

The next data set relates to A2780 cis-Pt. The data set is described as follows: XTT proliferation test, cis-platin-resistant A2780. The data set is classed as cell-based. The conditions noted are these: Homo sapiens, cis-platin-resistant cell line A2780 (ovary).
From the text: as §1, §2
Background: Formazan colour is commonly taken as a measure of viable cells.

The test system of another data set is L1210. The data set is described as follows: XTT proliferation test, L1210. To be noted: Mus musculus, cell line L1210 (leukaemia), non-resistant. The data set is classed as cell-based.
From the text: as §1, §2

The next data set deals with L1210 VCR. Put plainly: XTT proliferation test, vincristine-resistant L1210. In kind it is cell-based. To be noted: Mus musculus, vincristine-resistant cell line L1210 (leukaemia).
From the text: as §1, §2

A further data set concerns MESSA. Put plainly: XTT proliferation test, MESSA. In kind it is cell-based. The conditions noted are these: Homo sapiens, MES-SA, cell line MESSA (uterus), non-resistant.
From the text: as §1, §2

The next data set has as its system MESSA DX5. Put plainly: XTT proliferation test, doxorubicin-resistant MESSA Dx5. In kind it is cell-based. To be noted: Homo sapiens, MES-SA/Dx5, doxorubicin-resistant cell line MESSA Dx5 (uterus).
From the text: as §1, §2

The test system of a further data set is NCI H69. The data set is described as follows: XTT proliferation test, NCI H69. The data set is classed as cell-based. The conditions noted are these: Homo sapiens, cell line NCIH69 (lung), non-resistant.
From the text: as §1, §2

In another data set the test system is NCI H69 AR. Put plainly: XTT proliferation test, multi-drug-resistant NCI H69 AR. In kind it is cell-based. The conditions noted are these: Homo sapiens, NCI-H69AR, multi-drug-resistant cell line NCIH69 AR (lung).
From the text: as §1, §2

For the compound `Cc1cc(-c2ccc3ncc(NC(=O)NC(C)C)nc3c2)cc(C)c1O` [Compound 17, 1-[7-(4-Hydroxy-3,5-dimethylphenyl)quinoxalin-2-yl]-3-isopropylurea], the melting point lay in the range of 280 to 283 °C. This compound yielded an EC50 in the data set on NCI-H460 of 47 nM. The compound also came in with an EC50 with SKOV-3 of 40 nM. Besides, a half-maximal response with HCT116 (EC50) required 24 nM. This compound also displayed an EC50 in the data set on MDA MB468 of 39 nM. In addition, in the data set on PC-3, the half-maximal effective concentration (EC50) was determined as 28 nM. The compound also showed an EC50 in the data set with A549 of 29 nM. The same compound gave an EC50 with U87MG of 10 nM. This compound displayed an EC50 in the data set with L363 of 78 nM. This compound displayed a concentration giving a half-maximal response (EC50) in the data set on TMM of 32 nM. In the data set on RKOP27, this compound displayed a half-maximal effective concentration (EC50) of 26 nM. The compound further returned an EC50 in the data set with RS4, 11 of 37 nM. Moreover, in the data set with HSB-2, the concentration for a half-maximal effect (EC50) is 37 nM. The same compound came in with a half-maximal effective concentration (EC50) with NALM-6 of 54 nM. Further, in the data set with MOLT-3, the midpoint of the response, the EC50, lay at 36 nM. The compound further registered a concentration giving a half-maximal response (EC50) in the data set on MOLT-16 of 56 nM. For the same compound, the EC50 in the data set on KB-HeLa amounted to 37 nM. In the data set on MCF-7, this compound displayed a concentration for a half-maximal effect (EC50) of 32 nM. The compound also gave a half-maximal effective concentration (EC50) in the data set on MDA-MB435 of 18 nM. The compound also showed an EC50 in the data set with LNCaP of 40 nM. Further, the EC50 in the data set with A2780 was 0.3 nM. The compound further displayed an EC50 in the data set with A2780 cis-Pt of 0.5 nM. For the same compound, the concentration for a half-maximal effect (EC50) in the data set with L1210 amounted to 2 nM. For the same compound, a half-maximal response with L1210 VCR (EC50) required 4 nM. Besides, the EC50 in the data set with MESSA worked out at 152 nM. This compound registered a 50% effective concentration (EC50) in the data set on MESSA DX5 of 139 nM. In the data set with NCI H69, the concentration for a half-maximal effect (EC50) is 27 nM. In the data set on NCI H69 AR, this compound came in with an EC50 of 86 nM.
In turn, `CCNC(=S)Nc1cnc2ccc(-c3cc(C)c(O)c(C)c3)cc2n1` [Compound 22, 1-Ethyl-3-[7-(4-hydroxy-3,5-dimethylphenyl)quinoxalin-2-yl]thiourea] registered a melting point of 243 to 244 °C. The EC50 in the data set with NCI-H460 was determined as 27 nM. Besides, the concentration for a half-maximal effect (EC50) with SKOV-3 was 30 nM. This compound also showed a 50% effective concentration (EC50) with HCT116 of 7 nM. In the data set with MDA MB468, the 50% effective concentration (EC50) was 53 nM. In addition, the concentration for a half-maximal effect (EC50) in the data set on PC-3 was 11 nM. The same compound registered an EC50 with A549 of 8 nM. This compound returned a 50% effective concentration (EC50) with U87MG of 2 nM. Further, in the data set on RKOP27, the EC50 turned out to be 28 nM. This compound returned an EC50 in the data set with A2780 of 18 nM. The same compound came in with a concentration for a half-maximal effect (EC50) in the data set on A2780 cis-Pt of 14 nM. This compound registered a concentration for a half-maximal effect (EC50) in the data set with L1210 of 15 nM. In the data set on L1210 VCR, this compound registered an EC50 of 19 nM. This compound also registered a 50% effective concentration (EC50) in the data set with MESSA of 141 nM. The same compound had an EC50 in the data set on MESSA DX5 of 38 nM. In addition, the EC50 in the data set with NCI H69 was found to be 10 nM. In the data set on NCI H69 AR, the EC50 was found to be 8 nM.
With `Cc1cc(-c2ccc3ncc(NC(=S)NC4CC4)nc3c2)cc(C)c1O` [Compound 23, 1-Cyclopropyl-3-[7-(4-hydroxy-3,5-dimethylphenyl)quinoxalin-2-yl]-thiourea], the melting point fell in the range of 274 to 276 °C. Further, in the data set on NCI-H460, a half-maximal effect (EC50) was put at 21 nM. In the data set on SKOV-3, the EC50 is 16 nM. The compound further registered a 50% effective concentration (EC50) with HCT116 of 3 nM. Besides, in the data set on MDA MB468, the EC50 was 148 nM. Also, the half-maximal effective concentration (EC50) in the data set with PC-3 was found to be 3 nM. The midpoint of the response in the data set with A549, the EC50, lay at 9 nM. For the same compound, the concentration for a half-maximal effect (EC50) in the data set with U87MG worked out at 2 nM. The compound further had a 50% effective concentration (EC50) in the data set with RKOP27 of 20 nM. In the data set with A2780, the concentration for a half-maximal effect (EC50) is 22 nM. In addition, the concentration for a half-maximal effect (EC50) in the data set with A2780 cis-Pt came out at 19 nM. Besides, in the data set on L1210, it took 5 nM to reach a half-maximal effect (EC50). For the same compound, it took 4 nM to reach a half-maximal effect in the data set with L1210 VCR (EC50). Moreover, a half-maximal response in the data set on MESSA (EC50) required 48 nM. The compound further registered an EC50 in the data set with MESSA DX5 of 16 nM. In the data set on NCI H69, this compound came in with an EC50 of 4 nM. The compound further returned a concentration giving a half-maximal response (EC50) in the data set on NCI H69 AR of 0.8 nM.

A word on the EC50: it is the concentration that produces a half-maximal response. Broadly, the melting point is the temperature, or range, at which the solid turns liquid.
